Marks after values point to notes of the source that are not given here.
Key:
Format in all cases: in vivo, humans
[1] = system: perception of sweet taste of high fructose cornsyrup (HFCS); assay: 2AFC assessment of increase in perceived sweetness of HFCS solution; conditions: for Compound concentration with positive 2AFC results: in 5brix HFCS test sample; for Fold increase in perceived sweetness: positive control concentration surpassed divided by test sample concentration (5brix HFCS), approximate; for Sweetener Concentration of positive control surpassed by test sample: test sample 5brix HFCS plus compound, 2AFC sip and spit, panelists n≧15
Procedure: Effect of test compounds on the perception of sweet taste of high fructose cornsyrup (HFCS) two-alternative forced choice method (2AFC). The effect of the test compounds on the perception of the sweet taste of an aqueous solution of sweetener in humans was evaluated using a two-alternative forced choice “sip and spit” method (2AFC). The aqueous sweetener solutions were prepared by adding sucrose equivalent (SE) quantities of high fructose corn syrup (HFCS) (by weight), to water to achieve the desired concentration. The aqueous solutions ranged in pH from pH 2.5-pH 7. Compounds of the invention were first prepared as a 500-fold concentrated stock solution in 100% ethanol. These concentrated stocks were then added to the aqueous sweetener solutions to result in a final ethanol concentration of 0.2%. The control (positive and negative) samples were also normalized to 0.2% ethanol. This level of ethanol was not seen to contribute any perceived sweetness. The 2AFC test used for compound evaluation was a double blinded and randomized test where taste panelists (n≧15) evaluate a pair of sweetener solutions at a time—one sample contains aqueous sweetener solution plus compound (i.e. test) while the other contains aqueous sweetener solution at higher concentration without compound (i.e. positive control). Each test sample was compared against a positive control. For example, if the test sample contained 1× sweetener concentration with compound (e.g. 5brix HFCS with compound), the positive control sample contained a 1.1× sweetener concentration (e.g. 5.5brix HFCS without compound). […] Panelists were instructed not to eat or drink (except water) for at least 1 hour before the test. During the test, panelists were instructed to sip each sample, swirl it around their mouth and then expectorate. After tasting each sample in the pair, panelists were instructed to record the sample that is “sweeter” in taste. Panelists cleansed their palates by rinsing with water, eating a cracker and waiting for an interval of about 5 minutes. All samples were tasted at ambient temperatures. Data were analyzed using binomial probabilities. Approximate levels of sweetness enhancement in column 5 of Table 2 were calculated as follows: Approximate levels of sweetness enhancement=Sweetener concentration of positive control surpassed by the test sample, divided by sweetener concentration for compound-containing sample (e.g.1.3×=6.5brix HFCS/5brix HFCS).

[2] = system: perception of the sweet taste in a flavored aqueous environment; assay: Descriptive analysis (DA) panel: sweetness enhancement in HFCS sweetened lemon lime matrix; conditions: for Fold enhancement of sweetness perception as compared to control sample: vs negative control; for Perceived sweetness (spider plot, vs control sweetener solution): lemon-lime matrix sweetened with HFCS, pH 7
Procedure: (§1) The effect of the test compound on the perception of the sweet taste in a flavored aqueous environment, in the presence of carbohydrate sweeteners, was evaluated using a descriptive analysis methodology with a group of trained panelists, as follows.
The panel used in this example was trained to reference sweet attributes in an absolute manner, such that a particular concentration of sweetener is always measured by the panelists at the same point using a 15 cm line scale where each cm represents a 1% increase in sucrose to cover the range of 0% to 15% sucrose. For the rest of the attributes, the panel was trained using a hybrid approach between descriptive analysis methods well-known to those skilled in the art.
The trained panel was then used for a descriptive analysis assessment for Compound 2 and Compound 5 in flavored lemon lime matrix. Compound 2 was assessed at a dose of 50 ppm and Compound 5 was assessed at a dose of 20 ppm for sweetness enhancement in high fructose corn syrup (HFCS) sweetened lemon lime matrix.
The flavored sweetener solutions were prepared by adding sucrose equivalent quantities of HFCS (by weight), to lemon lime matrix to achieve the desired concentration. Compound was first prepared as a 500-fold concentrated stock solution in 100% ethanol. The concentrated stocks were then added to the flavored sweetener solutions to result in a final ethanol concentration of 0.2%. The control (positive and negative) samples were also normalized to 0.2% ethanol. This level of ethanol was not seen to contribute any perceived sweetness
(§2) Both control (flavored sweetener solutions without compound) and variant (flavored sweetener solutions with compound) samples were blinded and randomized. Samples were presented in monadic order and panelists were instructed to sip the sample, swirl it in their mouths and expectorate. A total of 7 attributes including sweet, bitter, sour, licorice and thickness were assessed for each sample. For the sweet attribute, panelists made an absolute scoring on a 15 cm line scale where each cm represents a 1% increase in sucrose to cover the range of 0% to 15% sucrose. After each sample assessment, panelists performed a standard palate cleansing protocol, and observed an inter-sample interval time (ISI). All samples were evaluated at ambient temperatures.
Data was collected and exported electronically utilizing FIZZ sensory software. Data analysis was conducted using SENPAQ version 5.0 software that uses tools such as ANOVA, Fisher's LSD, correlation to determine panel performance as well as significant differences between samples and attributes.
The letter “a” indicates significant differences among the samples at 95% confidence level. Fold enhancement (increase in perceived sweetness) was calculated by dividing the DA panel average intensity score observed for a variant sample by that observed for the negative control sample.

[3] = system: perception of non-sweet taste attributes (such as bitterness); assay: Descriptive analysis (DA) panel: non-sweet taste attributes in lemon lime matrix (spider plots); conditions: lemon-lime matrix sweetened with HFCS, pH 7
Procedure: as §1, with “non-sweet” for “the sweet”, “taste attributes (such as bitterness)” for “taste”, “follows. This occurred as part of DA assessment described previously in Example 3.” for “follows.”
The trained panel was then used for a descriptive analysis assessment for Compound 2 and Compound 5 in lemon lime flavored matrix, sweetened with high fructose corn syrup (HFCS), at a test dose of 50 ppm and 20 ppm, respectively.
as §2, with “All control and variant samples were prepared as described in Example 3. Both” for “Both”, “sample.” for “sample. For the sweet attribute, panelists made an absolute scoring on a 15 cm line scale where each cm represents a 1% increase in sucrose to cover the range of 0% to 15% sucrose.”
Data was collected and exported electronically utilizing FIZZ sensory software. […]

[4] = Compound 5 @ 20 ppm in 6.67brix HFCS lemon lime matrix
[5] = Compound 2 @ 50 ppm in 7.7brix HFCS lemon lime matrix

Structure (SMILES) | Compound concentration with positive 2AFC results [1] [ppm] | Fold increase in perceived sweetness [1] [X] | Sweetener Concentration of positive control surpassed by test sample [1] [brix HFCS] | Average Sweetness Intensity Score w/ ANOVA (on 15 cm scale) [2, 4] | Fold enhancement of sweetness perception as compared to control sample [2, 4] [X] | Perceived sweetness (spider plot, vs control sweetener solution) [2] | Other attributes including astringent, licorice and bitter (spider plot, vs control) [3] | Average Sweetness Intensity Score w/ ANOVA (on 15 cm scale) [2, 5] | Fold enhancement of sweetness perception as compared to control sample [2, 5] [X]
COc1ccc(C2CCc3ccc(O)c(C)c3O2)cc1O (racemic) [Compound 1, 2-(3-hydroxy-4-methoxyphenyl)-8-methylchroman-7-ol] | 35 | >1.2 | 6 | – | – | – | – | – | –
COc1ccc(C2CCc3cc(C)c(O)cc3O2)cc1O (racemic) [Compound 4, 2-(3-hydroxy-4-methoxyphenyl)-6-methylchroman-7-ol] | 20 | >1.3 | 6.5 | – | – | – | – | – | –
COc1ccc(C2CCc3cc(C)c(O)cc3O2)cc1O (single isomer, unassigned; (-)) [Compound 5, (−)-2-(3-hydroxy-4-methoxyphenyl)-6-methylchroman-7-ol] | 20 | >1.5 | 7.5 | 9.7^a | 1.47 | significant increase in perceived sweetness | observed to be significant | – | –
COc1ccc([C@@H]2CCc3ccc(O)c(C)c3O2)cc1O [Compound 2, (S)-2-(3-hydroxy-4-methoxyphenyl)-8-methylchroman-7-ol] | 50 | >1.3 | 6.5 | – | – | significant increase in perceived sweetness | observed to be significant | 10.3^a | 1.43
